Results from US12606561B2, “Substituted pyrazolo[1,5-a][1,3,5]triazines as CDK inhibitors” (QURIENT CO., LTD., priority 2018, dated 2026).
Where two headings read alike, the source gives them in different places.

What was measured:
H460 = experiment: Cellular H460 viability assay (CellTiter-Glo, 72 hours); type: cell-based; settings: Homo sapiens, NCI-H460; H460 cells
Procedure: All cell lines were routinely tested for mycoplasma.
To effect of the CDK7 inhibitor to inhibit the growth of target cancer cells, viability assay were conducted a 72 hour time period. Briefly, the candidate cell line was plated in 96 well plate at the following density of cells respectively. 1×10^4 cells/well for MV4-11, 5×10^3 for H460 and OVCAR-3, and 1×10^3 for A2780. […] DMSO solvent without compound served as a control and final DMSO concentration lest than 0.1%. After 72 hours of incubation at 37° C., 5% CO2 incubator, cells were analyzed for the viability using the CellTiter-Glo Luminescent Cell Viability Assay (Promega, Cat #G7570). All viability assays were performed in duplicate and Luminescence was read using an Envision (Perkin Elmer, USA). Data was analyzed using XLfit software.

CDK5/p25 = target: T1, CDK5/p25 (Homo sapiens, UniProt Q00535); experiment: Enzymatic assay for CDK5 (LANCE Ultra kinase assay, FRET based); type: biochemical; settings: ATP at Km
T1 construct: purchased Invitrogen PR8543B
How it was run: (§1)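 Inhibition was measured at ATP Km with 68 nM ULight-MBP peptide and CDK2/Cyclin A ([…]) or CDK5/p25 ([…]), using 8-dose 4-fold compound dilutions from DMSO. Kinase reaction ran 60 min at 23° C, then Eu anti-phospho-MBP plus EDTA were added for another 60 min before the fluorescence read.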

CDK1/Cyclin B = target: T2, CDK1/Cyclin B (Homo sapiens, UniProt P06493); experiment: Enzymatic assay for CDK1 (LANCE Ultra kinase assay, FRET based); type: biochemical
T2 construct: purchased Invitrogen PR4768C
How it was run: (§2)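 Purified CDK–cyclin enzyme, ATP at Km; ULight peptide substrate; TR-FRET via Eu anti-phospho-Ab; inhibition scored.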

CDK2/Cyclin A = target: T3, CDK2/Cyclin A (Homo sapiens, UniProt P24941); experiment: Enzymatic assay for CDK2 (LANCE Ultra kinase assay, FRET based); type: biochemical; settings: ATP at Km
T3 construct: purchased Invitrogen PV6290
How it was run: as §1

CDK7/Cyclin H/MNAT1 = target: T4, CDK7/Cyclin H/MNAT1 (Homo sapiens, UniProt P50613); experiment: Enzymatic assay for CDK7 (LANCE Ultra kinase assay, FRET based); type: biochemical; settings: for IC50: ATP at Km
T4 construct: purchased Invitrogen PR6749B
How it was run: as §2

MV4-11 = experiment: Cellular MV4-11 viability assay (CellTiter-Glo, 72 hours); type: cell-based; settings: Homo sapiens; MV4-11 cells
How it was run: (§3)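 RPMI-1640/10% FBS; plate cells (MV4-11 1×10^4, OVCAR-3 5×10^3, A2780 1×10^3 per well); 24 h later add compound 0.0015–10 uM; 72 h, 37° C; CellTiter-Glo luminescence, duplicate wells.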

A2780 = A2780 viability assay (CellTiter-Glo, 72 hours); type: cell-based; settings: Homo sapiens; A2780 cells
How it was run: as §3

OVCAR-3 = OVCAR-3 viability assay (CellTiter-Glo, 72 hours); type: cell-based; settings: Homo sapiens; OVCAR-3 cells
How it was run: as §3

[1] = ATP at Km, read-out: CDK1 enzymatic activity IC50

T1 sequence (Q00535 whole entry): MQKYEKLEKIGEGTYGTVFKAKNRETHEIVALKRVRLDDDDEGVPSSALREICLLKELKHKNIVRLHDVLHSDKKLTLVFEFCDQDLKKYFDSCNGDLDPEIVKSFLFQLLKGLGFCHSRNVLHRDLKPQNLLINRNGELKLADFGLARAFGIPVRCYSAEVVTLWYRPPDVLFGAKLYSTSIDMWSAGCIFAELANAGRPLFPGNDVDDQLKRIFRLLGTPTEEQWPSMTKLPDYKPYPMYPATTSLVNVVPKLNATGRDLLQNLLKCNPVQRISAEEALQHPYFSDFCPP
T1 sequence (Q15078 99-307 partner limits assumed): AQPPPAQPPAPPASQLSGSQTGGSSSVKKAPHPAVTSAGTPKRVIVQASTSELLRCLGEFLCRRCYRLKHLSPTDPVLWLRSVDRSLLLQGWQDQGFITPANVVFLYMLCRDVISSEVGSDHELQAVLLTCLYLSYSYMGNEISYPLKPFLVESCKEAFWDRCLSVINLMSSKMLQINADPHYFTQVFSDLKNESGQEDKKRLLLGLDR
T4 sequence (P50613 whole entry): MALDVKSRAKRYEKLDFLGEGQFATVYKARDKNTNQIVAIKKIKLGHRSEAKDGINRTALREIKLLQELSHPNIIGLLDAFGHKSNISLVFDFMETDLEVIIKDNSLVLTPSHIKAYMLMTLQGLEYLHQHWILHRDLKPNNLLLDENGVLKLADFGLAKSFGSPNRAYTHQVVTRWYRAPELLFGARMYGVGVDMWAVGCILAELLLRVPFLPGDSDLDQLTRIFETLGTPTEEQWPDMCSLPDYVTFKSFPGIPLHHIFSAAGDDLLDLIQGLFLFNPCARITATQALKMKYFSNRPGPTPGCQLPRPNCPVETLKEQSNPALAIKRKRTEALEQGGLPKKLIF
T4 sequence (P51946 whole entry partner): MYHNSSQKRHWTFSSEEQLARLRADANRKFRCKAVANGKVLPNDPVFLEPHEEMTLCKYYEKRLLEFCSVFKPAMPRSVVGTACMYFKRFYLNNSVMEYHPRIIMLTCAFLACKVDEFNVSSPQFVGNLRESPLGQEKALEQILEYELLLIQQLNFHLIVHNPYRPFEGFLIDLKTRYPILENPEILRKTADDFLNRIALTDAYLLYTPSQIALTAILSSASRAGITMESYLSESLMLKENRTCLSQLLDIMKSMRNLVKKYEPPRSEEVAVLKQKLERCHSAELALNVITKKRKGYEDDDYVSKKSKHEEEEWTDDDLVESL
T4 sequence (P51948 whole entry partner): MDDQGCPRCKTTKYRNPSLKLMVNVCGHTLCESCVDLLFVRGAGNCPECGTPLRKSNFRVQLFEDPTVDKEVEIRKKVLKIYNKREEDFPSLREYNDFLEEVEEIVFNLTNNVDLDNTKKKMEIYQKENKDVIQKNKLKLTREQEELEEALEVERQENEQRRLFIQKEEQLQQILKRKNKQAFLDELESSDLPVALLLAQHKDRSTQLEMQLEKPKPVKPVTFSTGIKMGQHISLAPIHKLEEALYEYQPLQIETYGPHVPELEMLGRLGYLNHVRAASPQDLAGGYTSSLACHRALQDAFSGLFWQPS
T2 sequence (P06493 whole entry): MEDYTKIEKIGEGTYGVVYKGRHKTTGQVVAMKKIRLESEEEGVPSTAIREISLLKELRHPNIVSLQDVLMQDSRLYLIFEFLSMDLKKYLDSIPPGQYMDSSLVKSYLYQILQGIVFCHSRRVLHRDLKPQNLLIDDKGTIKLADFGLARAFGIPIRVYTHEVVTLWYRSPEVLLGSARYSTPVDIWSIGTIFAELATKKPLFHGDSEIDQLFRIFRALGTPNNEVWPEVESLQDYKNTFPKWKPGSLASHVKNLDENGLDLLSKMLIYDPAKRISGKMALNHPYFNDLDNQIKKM
T2 sequence (P14635 whole entry partner): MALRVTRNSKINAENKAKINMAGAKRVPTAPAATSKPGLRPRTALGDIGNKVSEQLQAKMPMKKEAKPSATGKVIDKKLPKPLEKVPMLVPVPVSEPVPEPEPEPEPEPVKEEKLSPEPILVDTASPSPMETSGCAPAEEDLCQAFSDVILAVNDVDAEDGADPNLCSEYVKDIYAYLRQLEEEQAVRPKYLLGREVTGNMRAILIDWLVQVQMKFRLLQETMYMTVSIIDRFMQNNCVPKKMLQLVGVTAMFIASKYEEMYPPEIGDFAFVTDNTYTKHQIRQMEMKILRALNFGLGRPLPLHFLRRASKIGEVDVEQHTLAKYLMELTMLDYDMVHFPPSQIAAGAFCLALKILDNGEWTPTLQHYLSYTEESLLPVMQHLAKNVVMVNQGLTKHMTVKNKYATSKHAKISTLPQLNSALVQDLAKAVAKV

SMILES	IC50 (H460) [nM]	IC50 (CDK5/p25) [nM]	IC50 (CDK1/Cyclin B; [1]) [nM]	IC50 (CDK2/Cyclin A) [nM]	IC50 (CDK7/Cyclin H/MNAT1) [nM]	CDK1/CDK7: Selectivity of CDK7 inhibition over CDK1 inhibition (CDK7/Cyclin H/MNAT1)	CDK2/CDK7: Selectivity of CDK7 inhibition over CDK2 inhibition (CDK7/Cyclin H/MNAT1)	CDK5/CDK7: Selectivity of CDK7 inhibition over CDK5 inhibition (CDK7/Cyclin H/MNAT1)	IC50 (CDK1/Cyclin B) [nM]	IC50 (MV4-11) [nM]	IC50 (A2780) [nM]	IC50 (OVCAR-3) [nM]
CC(C)c1cnn2c(NCc3cccc(NC(=O)C4CCCN(C(=O)/C=C/CN(C)C)CC4)c3)nc(N3CCC(N)CC3)nc12 (racemic) [Compound 22]	1000 to 10000	100 to 1000	> 1000	100 to 1000	< 100	A (A indicates [fold] > 500)	B (B indicates 50 < [fold] ≤ 500)	C (C indicates [fold] ≤ 50)				
CC(C)c1cnn2c(NCc3ccccc3OC3CCN(C(=O)/C=C/CN(C)C)CC3)nc(N3CCC(N)CC3)nc12 [Compound 6]	< 1000	100 to 1000	> 1000	> 1000	< 100	A (A indicates [fold] > 500)	A (A indicates [fold] > 500)	C (C indicates [fold] ≤ 50)				
CC(C)c1cnn2c(NCc3ccccc3-c3nccc4c(NC(=O)/C=C/CN(C)C)cccc34)nc(N3CCC(N)CC3)nc12 [Compound 9]	1000 to 10000											
CC(C)c1cnn2c(NCc3cccc(NC(=O)c4cccc(NC(=O)/C=C/CN(C)C)c4)c3)nc(N3CCC(N)CC3)nc12 [Compound 1]	1000 to 10000	100 to 1000		100 to 1000	< 100	B (B indicates 50 < [fold] ≤ 500)	B (B indicates 50 < [fold] ≤ 500)	C (C indicates [fold] ≤ 50)	> 1000			
C=CC(=O)Nc1cccc(Oc2cccc(CNc3nc(N4CCC(N(C)C)CC4)nc4c(C(C)C)cnn34)c2)c1 [Compound 14]	< 1000	100 to 1000	> 1000	> 1000	< 100	A (A indicates [fold] > 500)	B (B indicates 50 < [fold] ≤ 500)	B (B indicates 50 < [fold] ≤ 500)				
CC(C)c1cnn2c(NCc3ccccc3-c3cc4cc(NC(=O)/C=C/CN(C)C)ccc4[nH]3)nc(N3CCC(N)CC3)nc12 [Compound 19]	1000 to 10000	< 100	100 to 1000	< 100	< 100	C (C indicates [fold] ≤ 50)	C (C indicates [fold] ≤ 50)	C (C indicates [fold] ≤ 50)				
CC(C)c1cnn2c(NCc3cccc(OC4CCCN(C(=O)/C=C/CN(C)C)CC4)c3)nc(N3CCC(N)CC3)nc12 (racemic) [Compound 18]	< 1000	100 to 1000	> 1000	100 to 1000	< 100	A (A indicates [fold] > 500)	B (B indicates 50 < [fold] ≤ 500)	B (B indicates 50 < [fold] ≤ 500)				
CC(C)c1cnn2c(NCc3ccccc3NC(=O)c3cccc(NC(=O)/C=C/CN(C)C)c3)nc(N3CCC(N)CC3)nc12 [Compound 8]	< 1000	100 to 1000	> 1000	> 1000	< 100	A (A indicates [fold] > 500)	B (B indicates 50 < [fold] ≤ 500)	B (B indicates 50 < [fold] ≤ 500)				
C=CC(=O)Nc1cccc(Oc2ccccc2CNc2nc(N3CCC(N)CC3)nc3c(C(C)C)cnn23)c1 [Compound 7]	< 1000	> 1000	> 1000	> 1000	< 100	A (A indicates [fold] > 500)	A (A indicates [fold] > 500)	B (B indicates 50 < [fold] ≤ 500)				
CC(C)c1cnn2c(NCc3cccc(Oc4ccc(F)c(NC(=O)/C=C/CN(C)C)c4)c3)nc(N3CCC(N)CC3)nc12 [Compound 13]	< 1000											
C=C(F)C(=O)Nc1ccc2c(-c3ccccc3CNc3nc(N4CCNCC4)nc4c(C(C)C)cnn34)nccc2c1 [Compound 79]		> 1000	> 1000	> 1000	< 100	A (A indicates [fold] > 500)	A (A indicates [fold] > 500)	A (A indicates [fold] > 500)		< 1000	< 1000	< 1000
C=CC(=O)Nc1ccc2c(-c3ccccc3CNc3nc(NC[C@H]4CCNC[C@@H]4O)nc4c(C(C)C)cnn34)nccc2c1 [Compound 60]		> 1000	> 1000	> 1000	< 100	A (A indicates [fold] > 500)	A (A indicates [fold] > 500)	A (A indicates [fold] > 500)		< 1000	< 1000	< 1000
COC1CCC(Nc2nc(NCc3ccccc3-c3nccc4cc(NC(=O)/C=C/CN(C)C)ccc34)n3ncc(C(C)C)c3n2)CC1 (centres unmarked) [Compound 44]		> 1000	> 1000	> 1000	< 100	A (A indicates [fold] > 500)	A (A indicates [fold] > 500)	A (A indicates [fold] > 500)		< 1000	< 1000	< 1000
C=C(C)C(=O)Nc1ccc2c(-c3ccccc3CNc3nc(N4CCC(N)CC4)nc4c(C(C)C)cnn34)nccc2c1 [Compound 48]		> 1000	> 1000	> 1000	< 100	A (A indicates [fold] > 500)	A (A indicates [fold] > 500)	A (A indicates [fold] > 500)		< 1000	< 1000	< 1000
C/C=C/C(=O)Nc1ccc2c(-c3ccccc3CNc3nc(N4CCNCC4)nc4c(C(C)C)cnn34)nccc2c1 [Compound 71]		> 1000	> 1000	> 1000	< 100	B (B indicates 50 < [fold] ≤ 500)	B (B indicates 50 < [fold] ≤ 500)	B (B indicates 50 < [fold] ≤ 500)		< 1000	< 1000	< 1000
